From paper PMC11837497, “A novel FadL family outer membrane transporter is involved in the uptake of polycyclic aromatic hydrocarbons” (Applied and Environmental Microbiology, 2025)

Biological target: T1, PadL (NpPadL) (Novosphingobium pentaromativorans, UniProt G6EAN6)
T1 construct: gene NSU_1434; padL expressed from pET-28b (T7, IPTG) in E. coli BL21 cells; also pHGE-Ptac complementation of delta-padL US6-1; signal peptide (residues 1-45) removed only in the model
T1 sequence (G6EAN6 46-450): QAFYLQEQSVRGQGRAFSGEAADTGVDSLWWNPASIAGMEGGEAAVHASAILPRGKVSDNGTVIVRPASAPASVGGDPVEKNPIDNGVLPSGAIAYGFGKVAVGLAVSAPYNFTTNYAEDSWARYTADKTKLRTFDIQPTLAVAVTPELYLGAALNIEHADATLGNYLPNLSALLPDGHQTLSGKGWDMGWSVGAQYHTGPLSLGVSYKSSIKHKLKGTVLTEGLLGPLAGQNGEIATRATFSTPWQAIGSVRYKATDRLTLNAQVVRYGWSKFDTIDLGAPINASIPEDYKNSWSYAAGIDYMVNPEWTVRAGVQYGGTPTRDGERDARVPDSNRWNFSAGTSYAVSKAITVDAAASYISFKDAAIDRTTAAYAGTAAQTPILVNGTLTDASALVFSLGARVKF
Assay: uptake by intact cells, confocal fluorescence of intracellular phenanthrene
Format: cell-based
Conditions: E. coli BL21/pET28b-padL, LB medium, 200 mg/L phenanthrene, IPTG induction, 37 °C

c1ccc2c(c1)ccc1ccccc12 [phenanthrene]
uptake by intact cells, confocal fluorescence of intracellular phenanthrene: E. coli BL21 can be endowed with an ability to assimilate phenanthrene after heterologous expression of PadL
